Test results from US20210392882A1, “METHODS AND COMPOSITIONS FOR IMPROVED INSECT REPELLENCY” (Board of Trustees of Michigan State University, priority 2020, published 2021).

System: sst-1 sensilla (sst-1A and sst-1B neurons)
Test: Single sensillum recording (SSR) of antennal sst-1 sensilla
Format: cell-based, Aedes aegypti
Details: wild-type ROCK; pyrethrum at 10^−2
Experimental: Single sensilla recording was conducted as described in Liu et al. J Insect Physiol 59, 1169-1177 (2013). Female mosquitoes 4 days after eclosion were anaesthetized (2-3 min on ice) and mounted on a microscope slide (76×26 mm). An antenna was fixed using a double-sided tape to a cover slip resting on a small ball of dental wax to facilitate manipulation. The cover slip was placed at an appropriate angle to the mosquito head. Once mounted, the specimen was placed under a microscope (Nikon SMA645, Japan) and the antenna viewed at a high magnification (1000×). Two tungsten microelectrodes were sharpened in 10% KNO2 at 2-10 V. The reference electrode, which was connected to ground, was inserted into the compound eye of the mosquito and the other was connected to the preamplifier (10×, Syntech, Kirchzarten, Germany) and inserted into the shaft of an olfactory sensillum to complete the electrical circuit to extracellularly record olfactory receptor neuron potentials (Den Otter et al., Journal of Insect Physiology 26, 465-472 (1980)). Controlled manipulation of the electrodes was performed using a micromanipulator (Burleigh PCS-6000, CA). The preamplifier was connected to an analog-to-digital signal converter (IDAC-4, Syntech, Germany), which in turn was connected to a computer for signal recording and visualization. The activity of co-located olfactory receptor neurons in each sensillum was assessed based on the differences in spike amplitude. The large spike amplitude was designated as cell A and the olfactory receptor neuron with the small spike amplitude was designated cell B (Ghaninia et al. Eur J Neurosci 26, 1611-1623 (2007)). Signals were recorded for 10 seconds starting 1 second before stimulation, and the action potentials were counted off-line over a 500-ms period before and after stimulation. The spontaneous firing rates observed in the preceding 500 milliseconds (ms) were subtracted from the total spike rates observed during the 500-ms stimulation, and counts were recorded in units of spikes/second.
Eighteen compounds besides pyrethrum from different chemical classes were selected for functional classification of olfactory sensilla with various morphological shapes (Extended Data FIG. 2). Each compound was diluted in dimethyl sulfoxide (DMSO) to a stock solution with a concentration of 100 μg/μl. Subsequently, a series of 10-fold dilutions were made from each of the stock solutions for each compound tested. For each dilution, a 10 μl portion was dispersed onto a filter paper strip (4×10 mm), which was then inserted into a Pasteur pipette to create the stimulus cartridge. A sample containing the solvent alone served as control. The airflow across the antennae was maintained constant at a 20 ml/second throughout the experiment. Purified and humidified air was delivered to the preparation through a glass tube (10-mm inner diameter) perforated by a small hole 10 cm away from the end of the tube, into which the tip of the Pasteur pipette could be inserted. The stimulus was delivered to the sensilla by inserting the tip of the stimulus cartridge into this hole and diverting a portion of the air stream (0.5 l/min) to flow through the stimulus cartridge for 500 ms using a stimulus controller (Syntech, Germany). The distance between the end of the glass tube and the antennae was ≤1 cm. The number of spikes/second was obtained by averaging the results for each sensillum/compound combination.
To identify which mosquito olfactory receptor neuron(s) responds to pyrethrum, single sensillum recordings (SSR) were performed of Ae. aegypti antennal olfactory sensilla in response to a panel of odorants (FIG. 2C-2L), most of which are plant-derived mosquito repellents, such as pyrethrum, (±)-citronellal, geranyl acetate and (−)-borneol. Three responsive sst sensilla were identified, sst1-3, and six responsive sbt sensilla, sbt1-6, based on their response profiles to the odorants in the panel (FIG. 2B, 2D-2L).

In the case of `CC1(C)C2CCC1(C)C(O)C2` (single isomer, unassigned; (-)) [(−)-borneol], the “response of sst-1A neuron” value is reported as “activates”.
